The source of these data is PMC9960633, “Novel Silver Complexes Based on Phosphanes and Ester Derivatives of Bis(pyrazol-1-yl)acetate Ligands Targeting TrxR: New Promising Chemotherapeutic Tools Relevant to SCLC Management” (International Journal of Molecular Sciences, 2023).

In assay [1] the test system is MDA-MB-231. Kind of assay: MTT cytotoxicity, 2D culture, breast carcinoma. The conditions noted are these: MDA-MB-231, 72 h, MTT test. It is filed as cell-based, human. How it is done:
(§1) The Ag(I) complexes 3–5 and the corresponding uncoordinated ligands 1 and 2 were evaluated for their cytotoxic activity against various human cancer cell lines representative of different solid tumors. In particular, the in-house cancer cell panel contained examples of human colon (HCT-15), pancreatic (PSN-1), cervical (A431), breast (MDA-MB-231) and ovarian (2008) carcinoma as well as of SCLC (U1285). For comparison purposes, the cytotoxicity of the reference metal-based chemotherapeutic drug cisplatin was assessed under the same experimental conditions.
(§2) Ag(I) complexes and the corresponding uncoordinated ligands were dissolved in DMSO just before the experiment, and a calculated amount of drug solution was added to the cell growth medium to a final solvent concentration of 0.5%, which had no detectable effects on cell viability. Cisplatin was dissolved in 0.9% sodium chloride solution. MTT (3-(4,5-dimethylthiazol-2-yl)-2,5-diphenyltetrazolium bromide) and cisplatin were obtained from Sigma Chemical Co, St. Louis, MO, USA.
(§3) Human SCLC (U1285), breast (MDA-MB-231), colon (HCT-15), and pancreatic (PSN-1) carcinoma cell lines were obtained by American Type Culture Collection (ATCC, Rockville, MD, USA). A431 are human cervical carcinoma cells kindly provided by Professor F. Zunino (Division of Experimental Oncology B, Istituto Nazionale dei Tumori, Milan, Italy). The 2008 cells and the cisplatin-resistant variant, C13* cells, are human ovarian adenocarcinoma cell lines that were kindly provided by Professor G. Marverti (Department of Biomedical Science of Modena University, Modena, Italy). Cell lines were maintained in the logarithmic phase at 37 °C in a 5% carbon dioxide atmosphere using the following culture media containing 10% fetal calf serum (EuroClone, Milan, Italy), antibiotics (50 units/mL penicillin and 50 μg/mL streptomycin) and 2 mM l-glutamine: (i) RPMI-1640 medium (EuroClone, Milan, Italy) for HCT-15, A431, PSN-1, U1285, 2008 and C13* cells; (ii) DMEM (EuroClone, Milan, Italy) for MDA-MB-231 cells.
(§4) The growth inhibitory effect toward tumor cells was evaluated by means of MTT assay. Briefly, 3–8 × 10^3 cells/well, dependent upon the growth characteristics of the cell line, were seeded in 96-well microplates in growth medium (100 μL). After 24 h, the medium was removed and replaced with a fresh one containing the compound to be studied at the appropriate concentration. Triplicate cultures were established for each treatment. After 72 h, each well was treated with 10 μL of a 5 mg/mL MTT saline solution, and following 5 h of incubation, 100 μL of a sodium dodecyl sulfate (SDS) solution in HCl 0.01 M was added. After overnight incubation, cell growth inhibition was detected by measuring the absorbance of each well at 570 nm using a Bio-Rad 680 microplate reader. Mean absorbance for each drug dose was expressed as a percentage of the control untreated well absorbance and plotted vs. drug concentration. IC50 values, the drug concentrations that reduce the mean absorbance at 570 nm to 50% of those in the untreated control wells, were calculated by the four-parameter logistic (4-PL) model. Evaluation was based on means from at least four independent experiments.
For orientation: Formazan colour is commonly taken as a measure of viable cells.

Assay [2] concerns C13* cells. Kind of assay: MTT cytotoxicity, cisplatin-resistant ovarian adenocarcinoma. It is filed as cell-based, human. The note with it: 72 h, MTT test.
Source text: The antiproliferative activity of the Ag(I) complexes 3–5 was also investigated in an additional cell line selected for its resistance to cisplatin, the human ovarian adenocarcinoma C13* cells. These cells were suitably selected after a cisplatin chronic treatment and are characterized by several mechanisms accounting for their resistance to cisplatin; these include (i) a reduced intracellular drug accumulation, (ii) high cellular levels of glutathione and metallothioneins, (iii) the enhanced repair of platinum-DNA adducts, and (iv) an overexpression of the Trx system.
Cytotoxicity was assessed after 72 h of drug treatment by MTT test, and the IC50 and RF values (RF = resistance factor, defined as the ratio of the IC50 of resistant cells over the IC50 of sensitive ones) are reported in Table 1.
as §3, §4

Assay [3] has as its system PSN-1. Kind of assay: MTT cytotoxicity, 2D culture, pancreatic carcinoma. It is filed as cell-based. The note with it: Homo sapiens, PSN1; PSN-1, 72 h, MTT test. As to the method:
as §1, §2, §3
The growth inhibitory effect toward tumor cells was evaluated by means of MTT assay. Briefly, 3–8 × 10^3 cells/well, dependent upon the growth characteristics of the cell line, were seeded in 96-well microplates in growth medium (100 μL). After 24 h, the medium was removed and replaced with a fresh one containing the compound to be studied at the appropriate concentration. Triplicate cultures were established for each treatment. […] After overnight incubation, cell growth inhibition was detected by measuring the absorbance of each well at 570 nm using a Bio-Rad 680 microplate reader. Mean absorbance for each drug dose was expressed as a percentage of the control untreated well absorbance and plotted vs. drug concentration. […]

Assay [4] has as its system U1285. Kind of assay: MTT cytotoxicity, 2D culture, SCLC. It is filed as cell-based, human. The conditions noted are these: U1285, 72 h, MTT test. How it is done:
as §1, §2, §3, §4

In assay [5] the test system is HEK293 cells. Kind of assay: MTT cytotoxicity, non-cancerous cells. It is filed as cell-based. The note with it: Homo sapiens, 72 h, MTT test. As to the method: One of the main drawbacks of chemotherapeutic drugs is the possible toxic effect toward non-cancerous cells, and we measured the cytotoxicity of Ag(I) complexes against non-cancerous HEK293 cells (see Table 1). For all Ag(I) complexes, calculated IC50 values were higher than those obtained on average against tumor cells, thus indicating for this class of metal complexes a slightly preferential cytotoxicity against human cancer cells.
as §4

Assay [6] relates to 2008. Kind of assay: MTT cytotoxicity, 2D culture, ovarian carcinoma. It is filed as cell-based, human. The note with it: 2008, 72 h, MTT test. How it is done: as §1, §2, §3, §4
Assay [7] relates to HCT-15. Kind of assay: MTT cytotoxicity, 2D culture, colon carcinoma. It is filed as cell-based, human. The conditions noted are these: HCT-15, 72 h, MTT test. How it is done: as §1, §2, §3, §4
The test system of assay [8] is A431. Kind of assay: MTT cytotoxicity, 2D culture, cervical carcinoma. The conditions noted are these: A431, 72 h, MTT test. It is filed as cell-based, human. As to the method: as §1, §2, §3, §4
In assay [9] the target is T1, TrxR (Homo sapiens, UniProt Q16881).
T1 construct: hampering TrxR activity when tested in U1285 cell cultures; endogenous in cells; host or cells: U1285 human small-cell lung carcinoma cells
T1 sequence (Q16881 151-649 limits assumed): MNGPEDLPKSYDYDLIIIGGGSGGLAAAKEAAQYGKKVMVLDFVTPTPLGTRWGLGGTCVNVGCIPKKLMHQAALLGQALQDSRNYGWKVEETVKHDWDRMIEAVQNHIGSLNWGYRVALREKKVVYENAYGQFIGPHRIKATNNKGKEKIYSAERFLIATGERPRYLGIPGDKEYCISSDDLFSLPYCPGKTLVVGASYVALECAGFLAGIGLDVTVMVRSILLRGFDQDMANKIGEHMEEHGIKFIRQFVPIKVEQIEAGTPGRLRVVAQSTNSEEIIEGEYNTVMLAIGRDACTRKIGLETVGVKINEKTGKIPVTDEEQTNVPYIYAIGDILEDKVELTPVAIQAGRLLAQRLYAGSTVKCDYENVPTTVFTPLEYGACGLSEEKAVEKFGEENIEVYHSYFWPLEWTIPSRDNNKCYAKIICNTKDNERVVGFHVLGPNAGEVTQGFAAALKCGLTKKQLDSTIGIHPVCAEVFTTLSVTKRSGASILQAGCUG
Kind of assay: TrxR activity in treated U1285 cells. It is filed as cell-based. The conditions noted are these: 2 µM, 24 h. As to the method: On the other hand, Ag(I) compounds 4 and 5 were as effective or even better than auranofin in hampering TrxR activity when tested in U1285 cell cultures.
At the end of incubation time, cells were collected, washed with ice-cold PBS and centrifuged at […]. Each sample was then lysed with RIPA buffer modified as follows: 150 mM NaCl, 50 mM Tris–HCl, 1% Triton X-100, 1% SDS, 1% DOC, 1 mM NaF, 1 mM EDTA, and immediately before use, an anti-protease cocktail (Roche, Basel, Switzerland) containing PMSF was added. Samples were tested for TrxR activity as above described.
Figure 2 TrxR inhibition. (A) TrxR1 activity was assayed by measuring NADPH-dependent reduction of DTNB at 412 nm as described in the Experimental Section. (a) 50% inhibition concentration (IC50), Error bars indicate S.D. (B) U1285 cells were incubated for 24 h with the tested compounds (2 µM). Subsequently, cells were washed twice with PBS and lysed. TrxR activity was tested by measuring NADPH-dependent reduction of DTNB at 412 nm. Error bars indicate SD. * p < 0.05; ** p < 0.01.

In assay [10] the test system is U1285 cancer cell spheroids. Kind of assay: 3D spheroid cytotoxicity, acid phosphatase (APH) assay. It is filed as cell-based, human. The conditions noted are these: 72 h. As to the method:
The in vitro antitumor activity of the newly developed Ag(I) derivatives was also assayed in 3D cell culture models of SCLC cells. Even if the 2D cell cultures are the most employed assays for in vitro screening due to the low cost, simplicity and reliability, two-dimensional methods are unable to reproduce the properties of in vivo solid tumors. In contrast, 3D cell cultures are much more efficient in closely mimicking the heterogeneity and complexity of the tumor mass and therefore are more predictive for in vivo results than conventional 2D cell cultures. On these bases, we tested the activity of the Ag(I) complexes on spheroids obtained from U1285 cells, which were proven to be highly sensitive to their in vitro antitumor activity. SCLC spheroids were treated with the investigated compounds for 72 h, and cell viability was assessed by means of the acid phosphatase (APH) assay.
Spheroids from U1285 cells (3 × 10^3 cells/well) were treated for 72 h with increasing concentrations of tested compounds. The growth inhibitory effect was evaluated by means of the APH assay. IC50 values were calculated from the dose–survival curves by the four-parameter logistic model (p < 0.05). S.D. = standard deviation.
Spheroid cultures were obtained by seeding 2.5 × 10^3 U1285 cancer cells/well in a round-bottom non-treated tissue culture 96-well plate (Greiner Bio-one, Kremsmünster, Austria) in phenol red free RPMI-1640 medium (Sigma Chemical Co., St. Louis, MO, USA) containing 10% fetal calf serum and supplemented with 20% methyl cellulose stock solution.
An APH modified assay was used for determining cell viability in 3D spheroids, as previously described. […] The inhibition of the cell growth induced by the tested complexes was detected by measuring the absorbance of each well at 405 nm, using a Bio-Rad 680 microplate reader. Mean absorbance for each drug dose was expressed as a percentage of the control untreated well absorbance (T/C) and plotted vs. drug concentration. […]

The term IC50 denotes the midpoint of a concentration-inhibition curve. Lower therefore signals higher potency. Take `c1ccc(P(c2ccccc2)c2ccccc2)cc1` [PPh3, triphenylphosphine, reference compound]: the concentration for half-maximal inhibition (IC50) in assay [1] (Homo sapiens) was > 50 µM; in [2] (Homo sapiens) it was > 50 µM; in [3], > 50 µM; in assay [4] (Homo sapiens), > 50 µM; in [5] it was > 100 µM; in assay [6] (Homo sapiens) it was > 50 µM. Besides, the IC50 in assay [7] (Homo sapiens) was > 50 µM; in assay [8] (Homo sapiens, A-431), 47.5 ± 1.1 µM.

On to `C1N2CN3CN1CP(C2)C3` [PTA, 1,3,5-triaza-7-phosphaadamantane, reference compound], for which the IC50 in assay [1] (Homo sapiens), in assay [2] (Homo sapiens), in assay [3], in [4] (Homo sapiens), in assay [5] and in [6] (Homo sapiens) was > 100 µM each time. Moreover, the half-inhibitory concentration (IC50) in assay [7] (Homo sapiens) was > 100 µM; in [8] (Homo sapiens, A-431), > 100 µM.

`CC(=O)OC[C@H]1O[C@@H]([S-])[C@H](OC(C)=O)[C@@H](OC(C)=O)[C@@H]1OC(C)=O.CCP(CC)CC.[Au+]` [auranofin, reference compound]: the “decrease of TrxR enzyme activity” value in assay [9] turned out to be 62%.

`N.N.[Cl][Pt][Cl]` [cisplatin, reference compound]: the IC50 in assay [1] came to 30.5 ± 2.6 µM; in assay [2], 30.5 ± 2.6 µM; in assay [4], 9.6 ± 1.2 µM; in [10], 65.4 ± 1.4 µM; in assay [6], 2.2 ± 1 µM; in [7] it was 15.3 ± 2.6 µM. Besides, in assay [8], the IC50 is 2.1 ± 0.9 µM.

Take `COC(=O)C(n1cccn1)n1cccn1` [ligand 1, [HC(pz)2COOCH3]]: the IC50 was > 50 µM in [1] (Homo sapiens); > 50 µM in assay [2] (Homo sapiens); > 50 µM in assay [3]; > 50 µM in assay [4] (Homo sapiens); > 50 µM in [5]; > 100 µM in [10] (Homo sapiens). The IC50 in [6] (Homo sapiens) was > 50 µM; in assay [7] (Homo sapiens), > 50 µM; in assay [8] (Homo sapiens, A-431), > 50 µM.

In the case of `COC(=O)C(n1nc(C)cc1C)n1nc(C)cc1C` [ligand 2, [HC(pz^Me2)2COOCH3]], the IC50 is > 50 µM in assay [1] (Homo sapiens); > 50 µM in assay [2] (Homo sapiens); > 50 µM in assay [3]; > 50 µM in [4] (Homo sapiens); > 50 µM in [5]; > 100 µM in assay [10] (Homo sapiens). Further, the IC50 in [6] (Homo sapiens) was > 50 µM; in assay [7] (Homo sapiens) it was > 50 µM; in assay [8] (Homo sapiens, A-431), > 50 µM.
